Data from patent US20240140986A1, “SYNTHETIC URSOLIC ACID DERIVATIVES AND METHODS OF USE THEREOF” (REATA PHARMACEUTICALS, INC., priority 2021, published 2024).
Like-named read-outs stand apart in the source and are kept apart here.

Experiments:
[1] = system: IFNγ-induced NO production in RAW 264.7 cells; assay: Nitric Oxide Suppression Assay (IFNγ-induced NO, Griess nitrite readout); type: cell-based, mouse; settings: for IC50: Mus musculus, read-out: Avg NO IC50 (nM) (Mean ± SD); for Avg NO IC50 Relative to RTA402 (fold): Table 2, ratio to RTA402
In short: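 RAW 264.7 mouse macrophages in RPMI 1640 with 0.5% FBS were pretreated 2 h with compound (0.1% DMSO final), then stimulated with 20 ng/mL IFNγ for 24 h at 37° C. Supernatant nitrite was read by Griess absorbance at 525 nm against a nitrite standard curve, normalized to DMSO-IFNγ wells; IC50 from curve fit. Viability by WST-1.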

[2] = system: Nrf2 / ARE-dependent luciferase in AREc32 reporter cell line; assay: AREc32 luciferase reporter activation (Nrf2 induction); type: cell-based, human; settings: for EC (2-fold): Homo sapiens, Arec32; for Relative Avg AREc32 EC2X Relative to RTA402 (fold): ratio to RTA402
In short: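 EC2X is the concentration raising luminescence 2-fold above DMSO-treated cells, from a nonlinear-regression dose–response fit. Compounds (0.03–1000 nM) were applied for nineteen hours, starting one day after seeding 20,000 reporter cells per well. Luciferase was read with One-Glo reagent.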

[3] = RAW264.7, Table 2, RAW 264.7 cells, 2 h pretreatment, 20 ng/mL interferon gamma 24 h
[4] = Table 2, concentration increasing luminescence 2-fold above vehicle, 19 h treatment, read-out: Avg AREc32 EC2X (nM) (Mean ± SD)

Row | Compound | IC50 [1, 3] [nM] | Avg NO IC50 Relative to RTA402 (fold) [1] [fold] | EC (2-fold) [2, 4] [nM] | Relative Avg AREc32 EC2X Relative to RTA402 (fold) ([2]; Table 2) | IC50 ([1]; RAW264.7, Table 3, ursolic acid derivatives) [nM] | EC (2-fold) ([2]; Table 3, ursolic acid derivatives, read-out: Avg ARE EC-2X (nM) (Mean ± SD))
1 | C[C@@H]1[C@H]2[C@H]3C(=O)C=C4[C@@]5(C)C=C(C#N)C(=O)C(C)(C)[C@@H]5CC[C@@]4(C)[C@]3(C)CC[C@@]2(CN2C(=O)CCC2=O)CC[C@H]1C [Compound T75] | 3.23 ± 0.65 | 1.46 ± 0.46 | 2.47 ± 0.64 | 0.242 ± 0.070 |  | 
2 | COC(=O)CC[C@]12CC[C@@H](C)[C@H](C)[C@H]1[C@H]1C(=O)C=C3[C@@]4(C)C=C(C#N)C(=O)C(C)(C)[C@@H]4CC[C@@]3(C)[C@]1(C)CC2 [Compound T76] | 14.8 ± 2.8 | 9.13 ± 1.38 | 8.7 ± 0.63 | 1.1 ± 0.3 |  | 
3 | C[C@@H]1[C@H]2[C@H]3C(=O)C=C4[C@@]5(C)C=C(C#N)C(=O)C(C)(C)[C@@H]5CC[C@@]4(C)[C@]3(C)CC[C@@]2(CCC(=O)O)CC[C@H]1C [Compound T77] | 8.75 ± 4.81 | 2.31 ± 0.20 | 3.16 ± 1.11 | 0.263 ± 0.085 |  | 
4 | CNC(=O)CC[C@]12CC[C@@H](C)[C@H](C)[C@H]1[C@H]1C(=O)C=C3[C@@]4(C)C=C(C#N)C(=O)C(C)(C)[C@@H]4CC[C@@]3(C)[C@]1(C)CC2 [Compound T78] | 2.43 ± 0.95 | 0.683 ± 0.093 | 2.33 ± 0.78 | 0.194 ± 0.058 |  | 
5 | CCNC(=O)CC[C@]12CC[C@@H](C)[C@H](C)[C@H]1[C@H]1C(=O)C=C3[C@@]4(C)C=C(C#N)C(=O)C(C)(C)[C@@H]4CC[C@@]3(C)[C@]1(C)CC2 [Compound T79] | 4.5 ± 1.84 | 1.25 ± 0.13 | 4.32 ± 0.5 | 0.361 ± 0.028 |  | 
6 | C[C@@H]1[C@H]2[C@H]3C(=O)C=C4[C@@]5(C)C=C(C#N)C(=O)C(C)(C)[C@@H]5CC[C@@]4(C)[C@]3(C)CC[C@@]2(CCC(=O)N2CCC2)CC[C@H]1C [Compound T80] | 2.76 ± 1.02 | 1.09 ± 0.03 | 3.72 ± 0.14 | 0.311 ± 0.023 |  | 
7 | C[C@@H]1[C@H]2[C@H]3C(=O)C=C4[C@@]5(C)C=C(C#N)C(=O)C(C)(C)[C@@H]5CC[C@@]4(C)[C@]3(C)CC[C@@]2(CCC(=O)NC2CC2)CC[C@H]1C [Compound T81] | 2.31 ± 0.55 | 0.92 ± 0.27 | 3.1 ± 1.5 | 0.238 ± 0.072 |  | 
8 | Cc1nc([C@]23CC[C@@H](C)[C@H](C)[C@H]2[C@H]2C(=O)C=C4[C@@]5(C)C=C(C#N)C(=O)C(C)(C)[C@@H]5CC[C@@]4(C)[C@]2(C)CC3)no1 [Compound T82] | 5.58 ± 0.32 | 3.69 ± 0.82 | 10 ± 3 | 1.01 ± 0.11 | 5.58 ± 0.32 | 10 ± 3
9 | C[C@@H]1[C@H]2[C@H]3C(=O)C=C4[C@@]5(C)C=C(C#N)C(=O)C(C)(C)[C@@H]5CC[C@@]4(C)[C@]3(C)CC[C@@]2(C=O)CC[C@H]1C [Compound T83] | 4.43 ± 2.68 | 2.75 ± 1.67 | 2.37 ± 0.33 | 0.294 ± 0.048 |  | 
10 | C[C@@H]1[C@H]2[C@H]3C(=O)C=C4[C@@]5(C)C=C(C#N)C(=O)C(C)(C)[C@@H]5CC[C@@]4(C)[C@]3(C)CC[C@@]2(/C=N/O)CC[C@H]1C [Compound T84] | 7.91 ± 2.32 | 4.07 ± 1.76 | 9.29 ± 1.52 | 1.14 ± 0.22 |  | 
11 | CNC(=O)[C@]12CC[C@@H](C)[C@H](C)[C@H]1[C@H]1C(=O)C=C3[C@@]4(C)C=C(C#N)C(=O)C(C)(C)[C@@H]4CC[C@@]3(C)[C@]1(C)CC2 [Compound T85] | 26.8 ± 4.7 | 9.84 ± 1.92 | 19 ± 3.5 | 1.63 ± 0.17 |  | 
